Data reported in patent US20070142412A1, “Crystalline form of 2-{4-['3-(4-chloro-2-fluorophenyl)-4-pyrimidin-4-yl-1h-pyrazol-5-yl]piperidin-1-yl}-2-oxoethanol” (priority 2003, published 2007).

Assay: Moisture sorption analysis (DVS) followed by PXRD
Format: physicochemical
Settings: 25° C.
Method: The moisture sorption profile of the sample was determined using a Surface Measurement System (SMS) DVS-1 Automated Water Sorption Analyzer operating via SMS Software version 2.16. The change in mass of the sample versus relative humidity (RH) was monitored at 25° C. using a method from 30% to 0%, 0% to 90%, 90% to 0%, and 0% to 30% RH in 10% RH steps with dm/dt=3×10^−4. Maximum hold time per step was 4 hours. An approximately 15 mg sample was loaded onto the sample holder. The balance was calibrated with a 100 mg standard weight at 25° C. HPLC-grade water was used for the study. It is believed that about 0.5% water is believed to be surface bound moisture. To investigate the hydration state of the Form 1 hydrate, moisture sorption analysis was performed. At the conclusion of the study, the sample was removed from the moisture sorption balance and analyzed by PXRD. […] Constant mass was not obtained at 0% RH in the moisture sorption study; therefore, an additional moisture sorption study was conducted with increase maximum hold time per step to allow the sample to reach equilibrium over the low RH range. […] This theory is in no way to be construed as limiting.

Change in PXRD diffraction pattern after moisture sorption analysis (cycled 30% to 0%, 0% to 90%, 90% to 0%, 0% to 30% RH in 10% RH steps): No change was observed
Water content indicated by moisture sorption data (at least 0.5% thought to be surface bound moisture): approximately 5.5%
SMILES: O=C(CO)N1CCC(c2[nH]nc(-c3ccc(Cl)cc3F)c2-c2ccncn2)CC1 [Form 1 hydrate, 2-{4-[3-(4-chloro-2-fluorophenyl)-4-pyrimidin-4-yl-1H-pyrazol-5-yl]piperidin-1-yl}-2-oxoethanol]
